Assays:
Powdery mildew [1] = assay: Controlled environment, 2% glyceride: powdery mildew severity on grape; type: in vivo; conditions: ‘Long Yan’ grape
Protocol: (§1) Plant materials used for tests were either branches obtained from the fields or trees grew in pots in a green house.
(§2) Plants growing in pot were inoculated with pests or pathogen and sprayed with 2% glyceride emulsions. Death rate of pests or number of lesions was evaluated one to three weeks after treatment.
(§3) Since mineral oil has been widely used for insect pest and disease control in agriculture (Taschenberg, 1952; Walsh et al., 2000), it was included in the experiments for comparison.

Bacterial Spot = assay: Controlled environment, 2% glyceride emulsion: bacterial spot severity in tomatoes; type: in vivo
Protocol: as §1, §2, §3

Verticillium wilt [2] = assay: Controlled environment, 2% glyceride emulsion: Verticillium wilt severity on cotton; type: in vivo
Protocol: as §1, §2, §3

Verticillium wilt [3] = assay: Controlled environment, 2% glyceride emulsion: Verticillium wilt severity on potato; type: in vivo
Protocol: as §1, §2, §3

Mite = assay: Controlled environment, 2% glyceride emulsion: mite survival on orange; type: in vivo; conditions: ‘Qi Cheng’ orange
Protocol: as §1, §2, §3

Aphids [4] = assay: Controlled environment, 2% glyceride emulsion: aphid survival on tomato; type: in vivo
Protocol: as §1, §2, §3

Fusarium wilt [5] = assay: Controlled environment, 2% glyceride emulsion: Fusarium wilt severity in tomatoes; type: in vivo
Protocol: as §1, §2, §3

Leaf-spot = assay: Controlled environment, 2% glyceride emulsion: leaf-spot severity on cabbage; type: in vivo
Protocol: as §1, §2, §3

Barley strip = assay: Controlled environment, 2% glyceride emulsion: Barley strip severity on wheat; type: in vivo
Protocol: as §1, §2, §3

Mites [6] = assay: Controlled environment, 2% glyceride emulsion: mite survival on wheat; type: in vivo
Protocol: as §1, §2, §3

Aphids [7] = assay: Controlled environment, 2% glyceride emulsion: aphid survival on cabbage; type: in vivo
Protocol: as §1, §2, §3

leaf scald = assay: Controlled environment, 2% glyceride emulsion: leaf scald severity on wheat; type: in vivo
Protocol: as §1, §2, §3

Leaf spot = assay: Controlled environment, 2% glyceride: leaf spot severity on grape; type: in vivo; conditions: ‘Long Yan’ grape
Protocol: as §1, §2, §3

Aphids [8] = assay: Controlled environment, 2% glyceride emulsion: aphid survival on apple; type: in vivo; conditions: ‘Delicious’ apple
Protocol: as §1, §2, §3

Verticillium wilt [9] = assay: Controlled environment, 2% glyceride emulsion: Verticillium wilt severity in tomatoes; type: in vivo
Protocol: as §1, §2, §3

SJS = assay: Controlled environment, 2% glyceride emulsion: SJS survival on apple; type: in vivo, San Jose Scale (SJS); conditions: ‘Delicious’ apple
Excerpt: as §1
(§4) To test the effects of different glycerides on over winter pests such as San Jose Scale (SJS) or European red mite (ERM) on pome or stone fruit trees, stems from dormant ‘Delicious’ apple trees and ‘Feng Huang’ peach trees infested with SJS were collected and dipped in 2% of different glyceride emulsions with the untreated served as control. Stems were then trimmed to 25 cm long by removing from the base, put in a plate with the base submerging in 1-cm thick water, and incubated at 23 degree C for 2 weeks in a chamber. After incubation, 15 overwintering SJS (‘Black-cap’ stage of first instar) per stem were examined microscopically and assessed for viability. Apple or peach stems containing ERM eggs were collected in late dormant and treated as described above and incubated at 28 degree C., 80% relative humidity, and 16-hour light/8-hour dark cycle. Mite viability was evaluated by the following method. Stem segment were impaled onto insect pins that had been driven through 10×12 cm white posterboard containing a thin coat of sticky gel to trip newly hatched mites and facilitate their counting. Eggs were examined every 2 days until hatch was complete. […]

Powdery mildew [10] = assay: Controlled environment, 2% glyceride: powdery mildew severity on apple; type: in vivo; conditions: ‘Delicious’ apple
Protocol: as §1, §2, §3

Brown rot = assay: Controlled environment, 2% glyceride: brown rot severity on orange; type: in vivo; conditions: ‘Qi Cheng’ orange
Protocol: as §1, §2, §3

TMV (I) = assay: Controlled environment, 2% glyceride emulsion: TMV (I) severity in tomatoes; type: in vivo, tobacco mosaic virus (TMV I)
Protocol: as §1, §2, §3

Psorosis = assay: Controlled environment, 2% glyceride: psorosis severity on orange; type: in vivo; conditions: ‘Qi Cheng’ orange
Protocol: as §1, §2, §3

Scab = assay: Controlled environment, 2% glyceride: scab severity on apple; type: in vivo; conditions: ‘Delicious’ apple
Protocol: as §1, §2, §3

Verticillium wilt [11] = assay: Controlled environment, 2% glyceride emulsion: Verticillium wilt severity on cabbage; type: in vivo
Protocol: as §1, §2, §3

Whitefly [12] = assay: Controlled environment, 2% glyceride emulsion: whitefly survival on apple; type: in vivo; conditions: ‘Delicious’ apple
Protocol: as §1, §2, §3

Aphids [13] = assay: Controlled environment, 2% glyceride emulsion: aphid survival on orange; type: in vivo; conditions: ‘Qi Cheng’ orange
Protocol: as §1, §2, §3

Bacterial canker = assay: Controlled environment, 2% glyceride: bacterial canker severity on peach; type: in vivo; conditions: ‘Feng Hung’ peach
Protocol: as §1, §2, §3

Aphids [14] = assay: Controlled environment, 2% glyceride emulsion: aphid survival on wheat; type: in vivo
Protocol: as §1, §2, §3

Psylla = assay: Controlled environment, 2% glyceride emulsion: psylla survival on apple; type: in vivo; conditions: ‘Delicious’ apple
Protocol: as §1, §2, §3

Whitefly [15] = assay: Controlled environment, 2% glyceride emulsion: whitefly survival on cotton; type: in vivo
Protocol: as §1, §2, §3

Whitefly [16] = assay: Controlled environment, 2% glyceride emulsion: whitefly survival on cabbage; type: in vivo
Protocol: as §1, §2, §3

Aphids [17] = assay: Controlled environment, 2% glyceride emulsion: aphid survival on cotton; type: in vivo
Protocol: as §1, §2, §3

Mites [18] = assay: Controlled environment, 2% glyceride emulsion: mite survival on apple; type: in vivo, European red mite (ERM); conditions: ‘Delicious’ apple
Excerpt: as §1, §4

Powdery mildew [19] = assay: Controlled environment, 2% glyceride: powdery mildew severity on peach; type: in vivo; conditions: ‘Feng Hung’ peach
Protocol: as §1, §2, §3

Fusarium wilt [20] = assay: Controlled environment, 2% glyceride emulsion: Fusarium wilt severity on cotton; type: in vivo
Protocol: as §1, §2, §3

TSWV = assay: Controlled environment, 2% glyceride emulsion: TSWV severity in tomatoes; type: in vivo, tomato spotted wilt virus (TSWV)
Protocol: as §1, §2, §3

Bacterial ring rot = assay: Controlled environment, 2% glyceride emulsion: bacterial ring rot severity on potato; type: in vivo
Protocol: as §1, §2, §3

TICV = assay: Controlled environment, 2% glyceride emulsion: TICV severity in tomatoes; type: in vivo, tomato infectious chlorosis virus (TICV)
Protocol: as §1, §2, §3

TMV (II) = assay: Controlled environment, 2% glyceride emulsion: TMV (II) severity in tomatoes; type: in vivo, tomato mosaic virus (TMV II)
Protocol: as §1, §2, §3

Mites [21] = assay: Controlled environment, 2% glyceride emulsion: mite survival on tomato; type: in vivo
Protocol: as §1, §2, §3

CCCCCCCCCCCC(=O)OCC(O)CO (centres unmarked) [Monolaurin]
disease severity, Grapes, Powdery mildew (Powdery mildew [1]): 16g % of untreated control | disease severity, Bacterial Spot (Bacterial Spot): 18f^z % of untreated control | disease severity, Cotton, Verticillium wilt (Verticillium wilt [2]): 48d % of untreated control | disease severity, Potato, Verticillium wilt (Verticillium wilt [3]): 37e % of untreated control | pest survival (%), Oranges, Mite (Mite): 39e % | pest survival (%), Tomato, Aphids (Aphids [4]): 27e % | disease severity, Fusarium wilt (Fusarium wilt [5]): 29f % of untreated control | disease severity, Cabbage, Leaf-spot (Leaf-spot): 23f % of untreated control | disease severity, Wheat, Barley strip (Barley strip): 19f % of untreated control | pest survival (%), Wheat, Mites (Mites [6]): 33e % | pest survival (%), Cabbage, Aphids (Aphids [7]): 17e % | disease severity, Wheat, leaf scald (leaf scald): 32f % of untreated control | disease severity, Grapes, Leaf spot (Leaf spot): 37f % of untreated control | pest survival (%), Apples, Aphids (Aphids [8]): 34e % | disease severity, Verticillium wilt (Verticillium wilt [9]): 26f % of untreated control | pest survival (%), Apples, SJS (SJS): 0f % | disease severity, Apples, Powdery mildew (Powdery mildew [10]): 18f % of untreated control | disease severity, Oranges, Brown rot (Brown rot): 34e % of untreated control | disease severity, TMV (I) (TMV (I)): 37e % of untreated control | disease severity, Oranges, Psorosis (Psorosis): 32d % of untreated control | disease severity, Apples, Scab (Scab): 14f^z % of untreated control | disease severity, Cabbage, Verticillium wilt (Verticillium wilt [11]): 46de % of untreated control | pest survival (%), Apples, Whitefly (Whitefly [12]): 31e % | pest survival (%), Oranges, Aphids (Aphids [13]): 31e % | disease severity, Peaches, Bacterial canker (Bacterial canker): 24f % of untreated control | pest survival (%), Wheat, Aphids (Aphids [14]): 21e % | pest survival (%), Apples, Psylla (Psylla): 35e % | pest survival (%), Cotton, Whitefly (Whitefly [15]): 31f % | pest survival (%), Cabbage, Whitefly (Whitefly [16]): 28f % | pest survival (%), Cotton, Aphids (Aphids [17]): 30e % | pest survival (%), Apples, Mites (Mites [18]): 0g % | disease severity, Peaches, Powdery mildew (Powdery mildew [19]): 13g % of untreated control | disease severity, Cotton, Fusarium wilt (Fusarium wilt [20]): 43e^z % of untreated control | disease severity, TSWV (TSWV): 27e % of untreated control | disease severity, Potato, Bacterial ring rot (Bacterial ring rot): 47e % of untreated control | disease severity, TICV (TICV): 33f % of untreated control | disease severity, TMV (II) (TMV (II)): 43d % of untreated control | pest survival (%), Tomato, Mites (Mites [21]): 34e %
